Source: patent publication US9174916B2, “Compounds and uses thereof for treating inflammation and modulating immune responses” (PURAPHARM COMPANY LIMITED, priority 2009, dated 2015)

Legend:
Assay type in all cases: cell-based, human
ERK1/2 = test: LPS-induced phosphorylation of ERK1/2 in PBMac, Western blot; conditions: B22EES1-8-3 140 μM for 24 h, then 10 ng/mL LPS for 15 min
Method: (§1) FIGS. 6A-6C show the effects of B22EES1-8-3 on LPS-induced phosphorylation (phospho-) of ERK1/2 and p38 MAP kinases, and nuclear translocation of NF-κB p65. PBMac were incubated with B22EES1-8-3 (140 μM) for 24 h prior to the addition of 10 ng/mL LPS for an additional 15 min. Cytoplasmic (A, B) and nuclear (C) proteins were harvested for Western Blotting: (A) Cytoplasmic proteins: phospho-ERK1/2 and total ERK1/2. (B) Cytoplasmic proteins: phospho-p38 and total p38 kinase. (C) Nuclear proteins: upper panel, NF-κB p65 and lamin B; lower panel, the intensity of corresponding lanes in the gel photograph of NF-κB p65 was shown. The results shown are representative of at least three independent experiments, with cells obtained from different donors. * P<0.05, compared with the corresponding control. […]
(§2) Whole cell lysate (20 μg) or nuclear protein (2 μg) were separated by sodium dodecyl sulfate polyacrylamide gel electrophoresis (SDS-PAGE) and transferred to nitrocellulose membranes for probing overnight with the respective antibodies specific for the phosphorylated or total form of ERK1/2 and p38 MAPK (Cell Signaling Technology, Beverly, Mass.), NF-κB p65 protein and lamin B (Santa Cruz Biotechnology, Santa Cruz, Calif.). […] In order to quantify the results from the Western blots, the gels were scanned and the intensity of the bands was analyzed by a computer program Quantity One from BioRad. […]

p38 MAPK = test: LPS-induced phosphorylation of p38 MAPK in PBMac, Western blot; conditions: B22EES1-8-3 140 μM for 24 h, then 10 ng/mL LPS for 15 min
Method: as §1, §2

NF-κB p65 = test: LPS-induced nuclear translocation of NF-κB p65 in PBMac, Western blot of nuclear proteins; conditions: B22EES1-8-3 140 μM for 24 h, then 10 ng/mL LPS for 15 min, nuclear fraction
Method: as §1, §2

TNF-α = test: LPS-induced TNF-α production in primary blood macrophages, ELISA of culture supernatants; conditions: for inhibition of LPS-induced TNF-α protein production: 140 μM B22EES1-8-3 for 24 hr, mean±S.D. of 6 experiments
Method: FIGS. 5A-5B show inhibition of LPS-induced TNF-α production by B22EES1-8-3 and dexamethasone. PBMac were incubated with (A) 140 μM B22EES1-8-3 or (B) 1.3 or 5.1 μM dexamethasone (Dex) for 24 hr prior to the addition of 1 ng/mL and 10 ng/mL LPS for another 24 hr. The culture supernatants were collected and assayed for TNF-α by ELISA. The results shown were the mean values±standard derivation (S.D.) of 6 independent experiments, with cells obtained from different donors. * P<0.05, compared with the corresponding control.
Human peripheral blood monocytic cells (PBMC) were isolated from the buffy coat of healthy donor blood supplied by Hong Kong Red Cross by Ficoll-Paque (Amersham Pharmacia Biotech, Piscataway, N.J.) density gradient centrifugation as described in our previous reports^14,15,34. In brief, the buffy coat was spun at 3000 rotations per min (rpm) for 15 min to separate the blood cells and the plasma. The heat inactivated serum was filtered for future use.
The adherent monocytic cells were detached and seeded onto tissue culture plates and incubated for another 7-14 days in order to differentiate the primary blood monocytic cells to primary blood macrophages (PBMac).
Culture supernatants of the LPS-treated PBMac, with or without B22EES1-8-3 pretreatment, were collected at different time intervals and stored at −70° C. The levels of the secreted TNF-α were measured by ELISA kits specific for the cytokine (R&D system, Minneapolis, Minn.).
To confirm the activities of B8-3 in suppressing TNF-α production, B8-3 was incubated with PBMac for 24 hr prior the addition of LPS at concentrations of 1 ng/mL and 10 ng/mL for 24 hr. The culture supernatants were collected and measured by ELISA for the level of secreted TNF-α.
To further compare the efficiency of B8-3 with existing drugs, dexamethasone, a potent immunosuppressive corticosteroid, was used as a prototype. PBMac were treated with dexamethasone for 24 hr prior to the addition of LPS at concentrations of 1 ng/mL and 10 ng/mL for 24 hr.

Compound	effect on LPS-induced phosphorylation of ERK1/2 (ERK1/2)	effect on LPS-induced phosphorylation of p38 MAPK (p38 MAPK)	effect on nuclear translocation of NF-κB p65 (NF-κB p65)	inhibition of LPS-induced TNF-α protein production (TNF-α; PBMac, then LPS 1 ng/mL for 24 hr)	inhibition of LPS-induced TNF-α protein production (TNF-α; PBMac, then LPS 10 ng/mL for 24 hr)	amelioration of LPS-upregulated TNF-α production (TNF-α; summary statement, FIG. 5A, LPS concentration not stated)	inhibition at 1.3 µM (TNF-α; Homo sapiens, Macrophage, PBMac, dexamethasone 1.3 μM for 24 hr, then LPS (1 and 10 ng/mL used) for 24 hr)	inhibition at 5.1 µM (TNF-α; Homo sapiens, Macrophage, PBMac, dexamethasone 5.1 μM for 24 hr, then LPS (1 and 10 ng/mL used) for 24 hr)
COc1ccc(/C=C/C(=O)OCC(=O)Cc2ccc(O)c(O)c2)cc1O [B8-3]	suppressed	not p38 MAPK induced by LPS was suppressed	reduced the amount of p65NF-kB in the nuclear fraction	47±19%	58±30%	over 50%		
C[C@@H]1C[C@H]2[C@@H]3CCC4=CC(=O)C=C[C@]4(C)[C@@]3(F)[C@@H](O)C[C@]2(C)[C@@]1(O)C(=O)CO [dexamethasone, reference compound]							32 ± 7.5%	25 ± 6.3%
